Measured values taken from patent US11498921B1, “Pyrimidine or pyridine compounds, preparation method therefor and pharmaceutical uses thereof” (INVENTISBIO CO., LTD., priority 2014, dated 2022).
pIC50: −log10 of the molar value. Where a name gives a salt, the structure may show the parent alone.

Experiments:
[1] = system: LoVo cells (wild-type EGFR human colon adenocarcinoma); test: Cell growth inhibition (Cell Titer-Glo), LoVo; format: cell-based; conditions: 72 hours drug treatment, 3 nM to 10 μM
Method: (§1) Experiment of Cell Growth Inhibition
(§2) The LoVo cell line is a wild-type EGFR human colon adenocarcinoma cell, and is grown in F-12K medium (GIBCO) containing 10% FBS. NCI-H2073 cell line is a wild-type EGFR human non-small cell lung cancer cell and grown in ACL-4 medium containing 10% FBS. The growth rate of NCI-H1975, LoVo and NCI-H2073 cells was detected by Cell Titer-Glo luminescence activity assay (Promega #G7572).
(§3) Briefly, trypsin was used for digesting cells in the logarithmic growth phase. 96-well plates were seeded with 50,000 Lovo or NCI-H2073 cells, 2500-3000 NCI-H1975 cells per well and provided with blank control wells containing only nutrient solution without inoculated cell, and the plates were incubated in a humidified incubator with 5% CO2 at 37° C. […] The concentration of test drug in NCI-H1975 cells was from 0.03 nM to 100 nM, and that in LoVo and NCI-H2073 cells was from 3 nM to 10 μM. The cell culture medium containing the different compounds was then added to a 96-well cell plate in which one cell control well comprising cell culture medium only containing DMSO was provided. After a drug treatment for 72 hours, the cell plates were removed from the incubator and allowed to stand at room temperature for 30 minutes. Next, Cell Titer-Glo reagent was added to the wells and the 96-well cell plate was shaken at room temperature for 10 minutes to induce cell lysis. The 96-well cell plate was placed on the bench for 2 minutes to stabilize the luminescence signal. Finally, the 96-well cell plate was placed in an EnVision Multi-labeled Microplate Reader (PerkinElmer), and the signal was read with an integral time of 0.5 seconds.
(§4) Formula: Percentage of cell growth inhibition %=(maximum signal−compound signal)/(maximum signal−minimum signal)*100%
(§5) The maximal signal was obtained from the cell control well which were treated with the DMSO solution having no any compound;
(§6) The compound signal was obtained from the drug-treated cell wells to which the compound was added;
(§7) The minimum signal was obtained from a blank control well to which no cells and only nutrient solution was added.

[2] = Concentration of parent drug and metabolite AZ5104 in rat plasma; format: in vivo; conditions: po, adult male rats, intragastrically, 10 mg/kg, 0.25-24 hours
Method: Comparison of the concentration of the metabolite AZ5104 in rats' body plasma of the pyrimidine compounds according to the present invention and AZD9291
Briefly, AZD9291 or the compound 49.(HCl)n of Example 49 or the compound 104.(MsOH) of Example 104 were administered intragastrically to 200-220 g of adult male rats at amount of 10 mg/kg. Each administration group had two to three rats. After administration, 150 μl of blood was extracted from the vein on the rat tail at different times (0.25, 0.5, 1, 2, 4, 6, 8, 12 and 24 hours), put in a tube with K2EDTA and placed immediately on ice. Then, the blood sample was centrifuged in centrifuge with a 4-degree at a speed of 2000 g for 15 minutes. The plasma was separated and placed in a small tube and stored in a refrigerator at −80° C. The concentration of parent drug and metabolite in plasma sample was analyzed by LC/MS.

[3] = system: NCI-H1975 cells (T790M and L858R EGFR mutations); test: Cell growth inhibition (Cell Titer-Glo), NCI-H1975; format: cell-based; conditions: Homo sapiens, 72 hours drug treatment, 0.03 nM to 100 nM
Method: as §1, §2, §3, §4, §5, §6, §7

[4] = system: NCI-H2073 cells (wild-type EGFR human non-small cell lung cancer); test: Cell growth inhibition (Cell Titer-Glo), NCI-H2073; format: cell-based; conditions: 72 hours drug treatment, 3 nM to 10 μM
Method: as §1
as §2, with “The compounds that were preferentially targeted for EGFR targeting certain mutations and relatively weak in wild-type EGFR were identified by determining the growth of cells. The NCI-H1975 cell line is a human non-small cell lung cancer cell containing T790M and L858R EGFR mutations, and the cell is grown in RPMI-1640 medium (GIBCO) containing 10% fetal bovine serum (FBS). The LoVo” for “The LoVo”
Briefly, trypsin was used for digesting cells in the logarithmic growth phase. 96-well plates were seeded with 50,000 Lovo or NCI-H2073 cells, 2500-3000 NCI-H1975 cells per well and provided with blank control wells containing only nutrient solution without inoculated cell, and the plates were incubated in a humidified incubator with 5% CO2 at 37° C. After 24 hours, the DMSO solution of the different compounds was diluted with a cell culture medium at 3.16 times per time to eight different concentrations from high to low levels. The concentration of test drug in NCI-H1975 cells was from 0.03 nM to 100 nM, and that in LoVo and NCI-H2073 cells was from 3 nM to 10 μM. The cell culture medium containing the different compounds was then added to a 96-well cell plate in which one cell control well comprising cell culture medium only containing DMSO was provided. After a drug treatment for 72 hours, the cell plates were removed from the incubator and allowed to stand at room temperature for 30 minutes. Next, Cell Titer-Glo reagent was added to the wells and the 96-well cell plate was shaken at room temperature for 10 minutes to induce cell lysis. The 96-well cell plate was placed on the bench for 2 minutes to stabilize the luminescence signal. Finally, the 96-well cell plate was placed in an EnVision Multi-labeled Microplate Reader (PerkinElmer), and the signal was read with an integral time of 0.5 seconds.
as §4, §5, §6, §7

Row | Compound | pIC50 [1] | AUC [2] | pIC50 [3] | pIC50 [4]
1 | C=CC(=O)Nc1cc(Nc2nccc(-c3cn(S(C)(=O)=O)c4ccccc34)n2)c(OC)cc1N(C)CCN(C)C [49. (HCl)n] | 5.65 | 0.91 µM·h | 9.15 | 6.87
2 | C=CC(=O)Nc1cc(Nc2nccc(-c3cn(C)c4ccccc34)n2)c(OC)cc1N(C)CCN1CCC(O)C1 (centres unmarked) [53. (HCl)n] | 5.54 |  | 7.85 | 6.16
3 | C=CC(=O)Nc1cc(Nc2nccc(-n3ccc(=O)c4ccccc43)n2)c(OC)cc1N(C)CCN(C)C [56. (HCl)n] | 5.38 |  | 7.44 | < 5.00
4 | [2H]C([2H])([2H])N(CCN(C)C)c1cc(OC)c(Nc2nccc(-n3c(=O)n(C)c4ccccc43)n2)cc1NC(=O)C=C [59. (HCl)n] | 5.38 |  | 8.89 | 6.92
5 | [2H]C([2H])([2H])Oc1cc(N(C)CCN(C)C)c(NC(=O)C=C)cc1Nc1nccc(-n2c(=O)n(C)c3ccccc32)n1 [60. (HCl)n] | 5.39 |  | 8.85 | 6.96
6 | C=CC(=O)Nc1cc(Nc2nccc(-c3cn(CC(F)(F)F)c4ccccc34)n2)c(OC)cc1N(C)CCN(C)C [104. (MsOH)2] |  | 1.49 µM·h | 7.78 | 6.01
7 | C=CC(=O)Nc1cc(Nc2nccc(-c3cn(C)c4ccccc34)n2)c(OC)cc1N(C)CCN(C)C [AZD9291, reference compound] |  | 0.64 µM·h |  | 
8 | C=CC(=O)Nc1cc(Nc2nccc(-c3cn(C)c4ccccc34)n2)c(OC)cc1N1CC(N2CCC2)C1 [Example 22] | < 5.00 |  | 7.69 | < 5.00
